Results: US11549950B2, “Cryptic metabolites and method for activating silent biosynthetic gene clusters in diverse microorganisms” (The Trustees of Princeton University, priority 2017, dated 2023)

Key:
Type in all cases: cell-based
[1] = tested on: Amycolatopsis keratiniphila NRRL B24117; assay: HiTES-IMS elicitor screen and validation, cryptic metabolites of A. keratiniphila; conditions: for induction of compound with m/z 1286 / elicitation of keratinimicin A (m/z 1811) synthesis / induction of compound with m/z 1425: HiTES-IMS, 502-member natural products library; for elicitation of keratinimicin A and keratinicyclin B, follow-up experiments: 7.8 μM vincamine, 2 μM Dhe, HR-MS
Protocol: (§1) In other examples, freshly-collected spores of S. canus or A. keratiniphila (˜10^7) were transferred to 50 mL YEME medium (3% (w/v) yeast extract, 5% peptone, 3% malt extract, 1% glucose, 34% sucrose, and 5 mM MgCl2.6H2O) in a 250 mL Erlenmeyer flask fitted with a stainless-steel spring and cultured at 30° C./250 rpm for 3 days. Mycelia were then collected by centrifugation (10 min, 3000 g, RT) and diluted into 300 mL of R4 medium to give a final concentration of 0.05% (w/v). R4 medium^1 consisted of 0.5% (w/v) glucose, 0.1% yeast extract, 0.5% MgCl2.6H2O, 0.2% CaCl2.2H2O, 0.15% proline, 0.118% valine, 0.28% TES, 50 mg/L casamino acid, 100 mg/L K2SO4, and 1× trace element solution, which contains 40 mg/L ZnCl2, 200 mg/L FeCl3.6H2O, 10 mg/L CuCl2.2H2O, 10 mg/L MnCl2.4H2O, 10 mg/L Na2B4O7.10H2O, and 10 mg/L (NH4)6Mo7O24.4H2O). Subsequently 300 μL were dispensed into six deep-well 96-well plates using a MultiFlo Microplate Dispenser. The wells were supplemented with candidate elicitors from the same 502-member natural products library used above with the aid of a CyBi-Well automated liquid transfer robot. Each well received 0.85 μL of an elicitor (from a stock concentration of 10 mM). The plates were sealed with air-permeable membranes and grown at 30° C./250 rpm. After 5 days, the samples were desalted as described above for P. protegens.
(§2) In one example, a laser ablation electrospray ionization (LAESI) DP1000 system (Protea Bioscience) coupled to a LTQ XL mass spectrometer (Thermo) was used for IMS analysis. The extension tube connecting the two instruments was kept at 130° C. with an external heater and the sample stage was kept at 10° C. during analysis. Sheath gas flow was set to 2.0 L/h. Eighty laser pulses were applied to each well to ablate samples using an 80% laser energy setting (˜850 μJ) and a 10 Hz frequency. A solution of 2:1 MeCN/water with 0.1% acetic acid (v/v) was supplied as the electrospray solution by a syringe pump running at a flow rate of 1 μL/min. The emitter was connected to high voltage power operating at +4000V or +4500V in positive ion detection mode. All data were visualized in ProteaPlot software.
In one example, after data collection, the signals observed in each well were extracted using GMSU-LAESI software (Gubbs, Inc), which gave all m/z values and the corresponding intensities per well (i.e. per elicitor). The data were binned in 1 m/z units for 3D-plotting. Signals with an intensity lower than a set threshold were not included in the 3D plots. The data were plotted in MatLab using the bar3 function. The component 2D plots were extracted from the corresponding 3D data in MatLab and plotted in Excel. The 2D plots were normalized to the highest intensity peak. Each signal was correlated with an elicitor.
Application of HiTES-IMS to Rare Actinomycetes. The disclosed approach was also applied to rare actinomycetes, a group of bacteria that account for some structurally fascinating and functionally potent metabolites, including the antibiotic of-last-resort vancomycin as well as the anticancer agent calicheamicin. Rare actinomycetes are an ideal test case for HiTES-IMS because in addition to their abundance of silent BGCs, they are difficult to manipulate genetically, thus all but precluding transcriptional reporter assays. Amycolatopsis keratiniphila NRRL B24117 were chosen as a test case. Its genome has not been sequenced, but efforts to find further BGCs that encode glycopeptide antibiotics (GPAs) using PCR had shown that it contains a vancomycin-like BGC, though a product has not yet been reported. A. keratiniphila was subjected to HiTES-IMS and obtained the metabolome shown, focusing on the mass range of typical GPAs (FIG. 9A). […] Additionally, a compound with m/z 1425 was induced by similar elicitors, including galangin and evodiamine (FIG. 10B). […]

[2] = tested on: Pseudomonas protegens Pf-5; assay: HiTES-IMS elicitor screen and flask validation, orfamide production; conditions: for elicitation of orfamide production: HiTES-IMS, 502-member natural products library, 96-well plates
Protocol: In one example, P. protegens was streaked out onto an LB-agar plate from frozen culture stocks and grown at 30° C. overnight. Colonies were used to inoculate 5 mL of LB in a 14 mL sterile culture tube, which was cultured 12-13 h at 30° C./250 rpm. The overnight culture was then used to inoculate 550 mL LB in a sterile Erlenmeyer flask to an initial optical density at 600 nm (OD600 nm) of 0.01. The culture was distributed into six sterile, deep-well 96-well plates (0.9 mL per well) using a MultiFlo Microplate Dispenser (BioTek). Subsequently, elicitors were added from a commercially-available 502-member natural products library (Enzo Scientific, cat #BML-2865) using a CyBi-Well automated liquid transfer robot (CyBio). Each well received 2.5 μL of an elicitor (from a stock concentration of 10 mM). The plates were sealed with air-permeable membranes and grown at 25° C./200 rpm. After 44 h, the plates were spun down, supernatants loaded onto a 96-well Strata C8-resin (Phenomenex), and the material eluted with 600 μL of 50% and 600 μL 100% MeCN into fresh 96 well plates. The eluates were then dried in a speedvac and resuspended in 30 μL of 40% MeCN (in water).
In one example, a laser ablation electrospray ionization (LAESI) DP1000 system (Protea Bioscience) coupled to a LTQ XL mass spectrometer (Thermo) was used for IMS analysis. The extension tube connecting the two instruments was kept at 130° C. with an external heater and the sample stage was kept at 10° C. during analysis. Sheath gas flow was set to 2.0 L/h. […]
As another example, Orfamides are lowly-expressed metabolites isolated from Pseudomonas protegens Pf-5 (hereafter P. protegens). […] The resulting metabolomes were analyzed using laser ablation-coupled electrospray ionization MS (LAESI-MS), an emerging method in which a mid-IR laser beam generates an ablation plume of metabolites that are ionized by an electrospray and introduced into the mass spectrometer. […] No signals were detected below m/z 1250 and above m/z 1650. […]

[3] = tested on: Amycolaptopsis sp. B-24117; assay: LAESI-MS elicitor screen (FIG. 20); conditions: concentration of 30 μM each
Protocol: In another example, to commence a screen, Amycolaptopsis sp. B-24117 spore stocks were used to inoculate 100 mL of R4 medium in a 500 mL Erlenmeyer flask (approx. 10^6 spores). These were grown overnight and then dispensed into 5×95 CORNING® COSTAR® 96 well cell culture plates using a BioTek MULTIFLO™ microplate dispenser. 150 μL was dispensed into each well, which were then supplemented with each 1 μL from the Natural Products small molecule library (Enzo Scientific). The plates were grown again at 30° C. and 250 rpm for 4 days before being imaged using a Laser Ablation Electrospray Mass Spectrometer (LAESI-MS), which consisted of a Protea Biosciences LAESI® DP-1000 module coupled to a THERMO SCIENTIFIC™ LTQ mass spectrometer. Imaging of each plate was conducted as per manufacturer instructions using 1:1 MeCN/water at a flow rate of 1 μL/min to ablate the samples into the mass spectrometer. The spectrum was collected for 8 seconds per well. The data were then analyzed using ProteaPlot software, searching for mass ions that were induced by elicitors and absent in untreated samples. Referring to FIG. 20, this led to identification of a mass ion (reference 230, m/s 1810, keratinimicin A).

[4] = tested on: Streptomyces canus NRRL B3980; assay: HiTES-IMS elicitor screen and flask validation, cryptic metabolites of S. canus
Protocol: as §1, §2
In one example, after data collection, the signals observed in each well were extracted using GMSU-LAESI software (Gubbs, Inc), which gave all m/z values and the corresponding intensities per well (i.e. per elicitor). The data were binned in 1 m/z units for 3D-plotting. […]
Application of HiTES-IMS to Streptomycetes. […] Three clusters of peaks, representing three compound families appeared to be elicited: compounds were detected with m/z ranging from 1260-1295, which further analysis identified as the amphomycins. […] A second set of induced compounds was also detected with m/z ranging from 1220-1245. […]

[5] = HiTES-IMS, 502-member natural products library

Compound: CC[C@H]1[C@@H]2C[C@H]3[C@@H]4N(C)c5ccccc5[C@]45C[C@@H]([C@H]2[C@H]5O)N3[C@@H]1O [ajmaline]
- induction of compound with m/z 1286 [1]: induced

Compound: C[C@@]12CCc3occc3[C@H]1CC[C@@]13C[C@@H](CC[C@H]12)[C@@](O)(CO)C3 [cafestol]
- elicitation of orfamide production [2]: Optimal production
- induction of orfamide A ([2]; flask cultures, HPLC-MS, 22 μM): stimulatory activity was further confirmed

Compound: CC(C)[C@@]1(NC(=O)[C@@H]2C[C@@H]3c4cccc5[nH]cc(c45)C[C@H]3N(C)C2)O[C@@]2(O)[C@@H]3CCCN3C(=O)[C@H](Cc3ccccc3)N2C1=O [dihydroergocristine]
- elicitation of keratinimicin A and keratinicyclin B, follow-up experiments [1]: strong stimulatory activity
- elicitation of keratinimicin A (m/z 1811) synthesis [1]: most effective elicitors
- elicitation of mass ion m/s 1810, keratinimicin A [3]: best elicitors

Compound: O=c1c(O)c(-c2ccccc2)oc2cc(O)cc(O)c12 [galangin]
- induction of compound with m/z 1286 [1]: induced
- induction of compound with m/z 1425 [1]: induced

Compound: O=C1Cc2c([nH]c3ccc(Br)cc23)-c2ccccc2N1 [kenpaullone]
- elicitation of canucin A (m/z 1579) synthesis [4, 5]: most effective elicitor
- induction of canucin A and B ([4]; validation, flask cultures, 17 μM): strong induction

Compound: O=c1c(O)c(-c2ccc(O)cc2O)oc2cc(O)cc(O)c12 [morin]
- elicitation of amphomycins (m/z 1260-1295) [4, 5]: best elicitors

Compound: C=C[C@H]1C[N@@]2CC[C@H]1C[C@H]2[C@H](O)c1ccnc2ccc(OC)cc12 [quinine]
- elicitation of amphomycins (m/z 1260-1295) [4, 5]: best elicitors

Compound: O=C1c2ccccc2-n2c1nc1ccccc1c2=O [tryptanthrin]
- elicitation of mass ion m/s 1810, keratinimicin A [3]: best elicitors

Compound: CC[C@]12CCCN3CCc4c(n(c5ccccc45)[C@@](O)(C(=O)OC)C1)[C@@H]32 [vincamine]
- elicitation of keratinimicin A and keratinicyclin B, follow-up experiments [1]: strong stimulatory activity
- elicitation of keratinimicin A (m/z 1811) synthesis [1]: most effective elicitors

Compound: CCC1=C[C@@H]2CN(C1)Cc1c([nH]c3ccccc13)[C@@](C(=O)OC)(c1cc3c(cc1OC)N(C)[C@H]1[C@@](O)(C(=O)OC)[C@H](OC(C)=O)[C@]4(CC)C=CCN5CC[C@]31[C@@H]54)C2 [vinorelbine]
- elicitation of orfamide production [2]: Optimal production

Compound: evodiamine
- induction of compound with m/z 1286 [1]: induced
- induction of compound with m/z 1425 [1]: induced
